The target of one test is T1, human B1R receptor (Homo sapiens, UniProt P46663).
T1 construct: host or cells: CHO K1 cells (Chinese hamster ovary), stably transfected
T1 sequence (P46663 1-353): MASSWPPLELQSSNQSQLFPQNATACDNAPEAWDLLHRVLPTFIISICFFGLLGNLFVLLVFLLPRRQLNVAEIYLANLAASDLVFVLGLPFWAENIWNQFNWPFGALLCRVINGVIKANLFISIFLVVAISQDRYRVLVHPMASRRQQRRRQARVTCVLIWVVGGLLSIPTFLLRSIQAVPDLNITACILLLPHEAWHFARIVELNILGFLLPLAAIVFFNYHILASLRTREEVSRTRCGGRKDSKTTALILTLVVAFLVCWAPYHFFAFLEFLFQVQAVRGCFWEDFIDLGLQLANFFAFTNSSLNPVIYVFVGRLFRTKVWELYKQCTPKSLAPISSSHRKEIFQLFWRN
Briefly: Functional study on the bradykinin receptor 1 (B1R), FLIPR Ca2+ assay, hB1R cells. It counts as cell-based. The note with it: agonist Lys-Des-Arg9-bradykinin 0.5 nM, % inhibition compared with the maximum achievable inhibition; for B1R Antagonism, human [10 μM] % Inhibition: test substance 10 μM, hB1R CHO K1 cells; for inhibition at 10 µM: CHO-K1, test substance 10 μM, read-out: B1R Antagonism, human [10 μM] % Inhibition. As to the method:
(§1) The agonistic or antagonistic action of substances can be quantified on the bradykinin receptor 1 (B1R) of the species human and rat with ectopically expressing cell lines (CHO K1 cells) and with the aid of a Ca^2+-sensitive dye (Fluo-4) using a fluorescent imaging plate reader (FLIPR). The indication in % activation is based on the Ca^2+ signal after addition of Lys-Des-Arg^9-bradykinin (0.5 nM) or Des-Arg^9-bradykinin (100 nM). Antagonists result in a suppression of the Ca^2+ influx following administration of the agonist. The % inhibition in comparison with the maximum achievable inhibition is indicated.
(§2) The agonistic or antagonistic action of substances can be determined on the bradykinin receptor 1 (B1R) of the species human and rat using the following assay. According to this assay, the Ca^2+ influx through the channel is quantified with the aid of a Ca^2+-sensitive dye (type Fluo-4, Molecular Probes Europe BV, Leiden, Netherlands) using a Fluorescent Imaging Plate Reader (FLIPR, Molecular Devices, Sunnyvale, USA).
(§3) Chinese hamster ovary cells (CHO K1 cells) which have been stably transfected with the human B1R gene (hB1R cells, Euroscreen s.a., Gosselies, Belgium) or with the B1R gene of the rat (rB1R cells, Axxam, Milan, Italy) are used. For functional studies, the cells are plated out on black 96-well plates having a clear base (BD Biosciences, Heidelberg, Germany) in a density of 20,000-25,000 cells/well. The cells are incubated overnight at 37° C. and with 5% CO2 in culture medium (hB1R cells: Nutrient Mixture Ham's F12, Gibco Invitrogen GmbH, Karlsruhe, Germany; rB1R cells: D-MEM/F12, Gibco Invitrogen GmbH, Karlsruhe, Germany), with 10 vol. % FBS (fetal bovine serum, Gibco Invitrogen GmbH, Karlsruhe, Germany). On the following day, the cells are loaded for 60 minutes at 37° C. with 2.13 μM Fluo-4 (Molecular Probes Europe BV, Leiden, Netherlands) in HBSS buffer (Hank's buffered saline solution, Gibco Invitrogen GmbH, Karlsruhe, Germany) […] (Sigma-Aldrich, Taufkirchen, Germany) and 10 mM HEPES (Sigma-Aldrich, Taufkirchen, Germany). The plates are then washed twice with HBSS buffer, and HBSS buffer additionally containing 0.1% BSA (bovine serum albumin; Sigma-Aldrich, Taufkirchen, Germany), 5.6 mM glucose and 0.05% gelatin (Merck KGaA, Darmstadt, Germany) is added to the plates. After incubation for a further 20 minutes at room temperature, the plates are inserted into the FLIPR for Ca^2+ measurement. The Ca^2+-dependent fluorescence is measured before and after the addition of substances (λex=488 nm, λem=540 nm). Quantification is carried out by measuring the highest fluorescence intensity (FC, fluorescence counts) over time.
(§4) The FLIPR protocol consists of 2 substance additions. Test substances (10 μM) are first pipetted onto the cells and the Ca^2+ influx is compared with the control (hB1R: Lys-Des-Arg^9-bradykinin 0.5 nM; rB1R: Des-Arg^9-bradykinin 100 nM). This gives the activation in %, based on the Ca^2+ signal after addition of Lys-Des-Arg^9-bradykinin (0.5 nM) or Des-Arg^9-bradykinin (100 nM).
(§5) After 10 minutes' incubation, 0.5 nM Lys-Des-Arg^9-bradykinin (hB1R) or 100 nM Des-Arg^9-bradykinin (rB1R) are applied, and the influx of Ca^2+ is likewise determined. Antagonists lead to suppression of the Ca^2+ influx. The % inhibition compared with the maximum achievable inhibition is calculated.

For another test, the target named is T2, B1R receptor of the rat (Rattus norvegicus, UniProt P97583).
T2 construct: host or cells: CHO K1 cells (Chinese hamster ovary), stably transfected
T2 sequence (P97583 1-337): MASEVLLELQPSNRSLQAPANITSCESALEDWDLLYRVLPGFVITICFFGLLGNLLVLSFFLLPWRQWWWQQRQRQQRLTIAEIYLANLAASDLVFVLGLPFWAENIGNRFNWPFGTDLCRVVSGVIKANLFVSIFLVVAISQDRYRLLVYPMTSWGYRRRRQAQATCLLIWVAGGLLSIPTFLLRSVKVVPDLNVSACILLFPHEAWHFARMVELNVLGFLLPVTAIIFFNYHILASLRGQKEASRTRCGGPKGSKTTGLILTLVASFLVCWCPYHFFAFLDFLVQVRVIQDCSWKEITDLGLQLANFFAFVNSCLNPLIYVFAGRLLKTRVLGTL
As to the kind of experiment: Functional study on the bradykinin receptor 1 (B1R), FLIPR Ca2+ assay, rB1R cells. It counts as cell-based. Particulars: agonist Des-Arg9-bradykinin 100 nM, % inhibition compared with the maximum achievable inhibition; for B1R Antagonism, rat [10 μM] % Inhibition: test substance 10 μM, rB1R CHO K1 cells; for inhibition at 10 µM: CHO-K1, test substance 10 μM, read-out: B1R Antagonism, rat [10 μM] % Inhibition. How it is done: as §1, §2, §3, §4, §5

One may read the inhibition as the drop in the measured response relative to a control, in per cent.

Turning to `O=C(COCC1CCCN1S(=O)(=O)c1c(Cl)cc(Cl)cc1Cl)N1CCC(N2CCCCC2)CC1` (centres unmarked) [Example 298, 1-(1,4′-bipiperidin-1-yl)-2-((1-(2,4,6-trichlorophenylsulfonyl)pyrrolidin-2-yl)methoxy)ethanone], the “B1R Antagonism, human [10 μM] % Inhibition” value at human B1R receptor is 105.09%. Also, on B1R receptor of the rat, the “B1R Antagonism, rat [10 μM] % Inhibition” value turned out to be 103.58%.

On to `O=C(COCC1CCCCN1S(=O)(=O)c1c(Cl)cc(Cl)cc1Cl)NCc1ccncc1` (centres unmarked) [Example 394, N-(pyridin-4-ylmethyl)-2-((1-(2,4,6-trichlorophenylsulfonyl)piperidin-2-yl)methoxy)acetamide], for which the inhibition at 10 µM at human B1R receptor was 31.5%; on B1R receptor of the rat, 99.1%.

As to `O=C(COCC1CCCN1S(=O)(=O)c1c(Cl)cc(Cl)cc1Cl)NCc1ccc(CN2CCOCC2)cc1` (centres unmarked) [Example 49, N-(4-morpholin-4-ylmethyl-benzyl)-2-[1-(2,4,6-trichloro-phenylsulfonyl)-pyrrolidin-2-ylmethoxy]-acetamide], the inhibition at 10 µM at human B1R receptor amounted to 65.9%; on B1R receptor of the rat, 92.3%.

`O=C(COCC1Cc2ccccc2CN1S(=O)(=O)c1ccc(Cl)c(Cl)c1)N1CCC(N2CCCC2)CC1` (centres unmarked) [Example 38, 2-((2-(3,4-dichlorophenylsulfonyl)-1,2,3,4-tetrahydroisoquinolin-3-yl)methoxy)-1-(4-(pyrrolidin-1-yl)piperidin-1-yl)ethanone]: the results for the inhibition at 10 µM at human B1R receptor and at B1R receptor of the rat were 75% and 65.4%, respectively.

On to `CCN(Cc1ccncc1)C(=O)COCC1CCCCN1S(=O)(=O)c1c(C)cc(OC)cc1C` (centres unmarked) [Example 510, N-ethyl-2-((1-(4-methoxy-2,6-dimethylphenylsulfonyl)piperidin-2-yl)methoxy)-N-(pyridin-4-ylmethyl)acetamide], for which the inhibition at 10 µM on human B1R receptor amounted to 51.4%; at B1R receptor of the rat, 102%.

Consider `CN(C)CCCN1CCN(C(=O)COCC2CCCN2S(=O)(=O)c2c(Cl)cc(C(F)(F)F)cc2Cl)CC1` (centres unmarked) [Example 569, 2-((1-(2,6-dichloro-4-(trifluoromethyl)phenylsulfonyl)pyrrolidin-2-yl)methoxy)-1-(4-(3-(dimethylamino)propyl)piperazin-1-yl)ethanone], for which the inhibition at 10 µM on human B1R receptor was 90%; at B1R receptor of the rat it was 92.9%.

For `O=C(COCC1CCCCN1S(=O)(=O)c1c(Cl)cc(Cl)cc1Cl)NCc1ccc(N2CCCCC2)cc1` (centres unmarked) [Example 74, N-(4-piperidin-1-yl-benzyl)-2-[1-(2,4,6-trichloro-phenylsulfonyl)-piperidin-2-yl-methoxy]-acetamide], the inhibition at 10 µM came to 50.4% on human B1R receptor and 103% at B1R receptor of the rat.

Regarding `COCCN1CCN(C(=O)COCC2Cc3ccccc3CN2S(=O)(=O)c2c(C)cc(C)cc2C)CC1` (centres unmarked) [Example 246, 2-((2-(mesitylsulfonyl)-1,2,3,4-tetrahydroisoquinolin-3-yl)methoxy)-1-(4-(2-methoxyethyl)piperazin-1-yl)ethanone], the inhibition at 10 µM at human B1R receptor was found to be 56.4%; on B1R receptor of the rat, 72.1%.

For the compound `COc1cc(C)c(S(=O)(=O)N2CCCCC2COCC(=O)N2CCN(Cc3cnn(C)c3C)CC2)c(C)c1` (centres unmarked) [Example 198, 1-(4-((1,5-dimethyl-1H-pyrazol-4-yl)methyl)piperazin-1-yl)-2-((1-(4-methoxy-2,6-dimethylphenylsulfonyl)piperidin-2-yl)methoxy)ethanone], the inhibition at 10 µM worked out at 105% at human B1R receptor and 99.8% at B1R receptor of the rat.

For the compound `COc1cc(C)c(S(=O)(=O)N2c3ccccc3CCC2COCC(=O)N2CCN(C3CCN(C)CC3)CC2)c(C)c1` (centres unmarked) [Example 202, 2-((1-(4-methoxy-2,6-dimethylphenylsulfonyl)-1,2,3,4-tetrahydroquinolin-2-yl)methoxy)-1-(4-(1-methylpiperidin-4-yl)piperazin-1-yl)ethanone], the inhibition at 10 µM on human B1R receptor was 104%; at B1R receptor of the rat, 99.8%.

Turning to `O=C(COCC1CCCCN1S(=O)(=O)c1cccc2ccccc12)N1CCCN(Cc2ccccc2)CC1` (centres unmarked) [Example 6, 1-(4-benzyl-[1,4]diazepan-1-yl)-2-[1-(naphthyl-1-sulfonyl)-piperidin-2-ylmethoxy]-ethanone], the “B1R Antagonism, human [10 μM] % Inhibition” value at human B1R receptor was determined as 102.21%. Besides, on B1R receptor of the rat, the “B1R Antagonism, rat [10 μM] % Inhibition” value turned out to be 94.88%.

Take `COc1cc(C)c(S(=O)(=O)N2CCCCC2COCC(=O)Nc2cc(-c3ccccc3)n[nH]2)c(C)c1` (centres unmarked) [Example 545, 2-((1-(4-methoxy-2,6-dimethylphenylsulfonyl)piperidin-2-yl)methoxy)-N-(3-phenyl-1H-pyrazol-5-yl)acetamide]: the inhibition at 10 µM at human B1R receptor came to 39.8%; at B1R receptor of the rat, 106%.

As to `COc1cc(C)c(S(=O)(=O)N2CCCCC2COCC(=O)N2CCC(c3ccncc3)C2)c(C)c1` (centres unmarked) [Example 238, 2-((1-(4-methoxy-2,6-dimethylphenylsulfonyl)piperidin-2-yl)methoxy)-1-(3-(pyridin-4-yl)pyrrolidin-1-yl)ethanone], the inhibition at 10 µM on human B1R receptor was determined as 99.9%; on B1R receptor of the rat it was 99.3%.

Consider `COc1cc(C)c(S(=O)(=O)N2CCCCC2COCC(=O)NCc2ccccc2N2CCCCC2)c(C)c1` (centres unmarked) [Example 428, 2-((1-(4-methoxy-2,6-dimethylphenylsulfonyl)piperidin-2-yl)methoxy)-N-(2-(piperidin-1-yl)benzyl)acetamide], for which the inhibition at 10 µM is 23.8% at human B1R receptor and 102% on B1R receptor of the rat.

For the compound `COc1ccc(N2CCN(C(=O)COCC3CCCN3S(=O)(=O)c3c(C)cc(OC)cc3C)CC2)cc1` (centres unmarked) [Example 308, 2-((1-(4-methoxy-2,6-dimethylphenylsulfonyl)pyrrolidin-2-yl)methoxy)-1-(4-(4-methoxyphenyl)piperazin-1-yl)ethanone], the inhibition at 10 µM at human B1R receptor was 105%; on B1R receptor of the rat it was 101%.

In the case of `COc1cccc(-c2cc(NC(=O)COCC3CCCCN3S(=O)(=O)c3c(C)cc(OC)cc3C)n[nH]2)c1` (centres unmarked) [Example 541, 2-((1-(4-methoxy-2,6-dimethylphenylsulfonyl)piperidin-2-yl)methoxy)-N-(5-(3-methoxyphenyl)-1H-pyrazol-3-yl)acetamide], the inhibition at 10 µM at human B1R receptor amounted to 103%; at B1R receptor of the rat, 108%.

For the origin of these results see patent US8435978B2, “Substituted sulfonamide compounds” (Gruenenthal GmbH, priority 2006, dated 2013).
